In PubChem BioAssay (NCI):
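The compound was tested at five concentrations on cells cultured in 96-well plates, with a 48-hour exposure period. GI50 marks 50% less growth. TGI is the concentration that stops growth completely.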

Columns and labels:
Assay in all cases: NCI tumour cell line growth inhibition, 48 h
[1] = system: SNB-19 CNS
[2] = system: MDA-MB-231 breast
[3] = system: SK-MEL-28 melanoma
[4] = system: MALME-3M melanoma
[5] = system: UO-31 renal
[6] = system: KM12 colon
[7] = system: OVCAR-5 ovarian
[8] = system: BT-549 breast
[9] = system: HOP-62 NSCLC
[10] = system: NCI/ADR-RES ovarian
[11] = system: A498 renal
[12] = system: RPMI-8226 leukemia
[13] = system: SR leukemia
[14] = system: SK-MEL-2 melanoma
[15] = system: EKVX NSCLC
[16] = system: OVCAR-8 ovarian
[17] = system: MDA-MB-435
[18] = system: OVCAR-4 ovarian
[19] = system: OVCAR-3 ovarian
[20] = system: ACHN renal
[21] = system: U251 CNS
[22] = system: A549 NSCLC
[23] = system: HOP-92 NSCLC
[24] = system: SK-OV-3 ovarian
[25] = system: SW-620 colon
[26] = system: HCT-116 colon
[27] = system: CCRF-CEM leukemia
[28] = system: M14 melanoma
[29] = system: HCC-2998 colon
[30] = system: MCF7 breast
[31] = system: TK-10 renal
[32] = system: PC-3 prostate
[33] = system: HS 578T breast
[34] = system: UACC-62 melanoma
[35] = system: CAKI-1 renal
[36] = system: HT29 colon
[37] = system: MOLT-4 leukemia
[38] = system: T-47D breast
[39] = system: SF-295 CNS
[40] = system: HCT-15 colon
[41] = system: HL-60(TB) leukemia
[42] = system: RXF 393 renal
[43] = system: NCI-H23 lung
[44] = system: 786-0 renal
[45] = system: DU-145 prostate
[46] = system: SF-268 CNS
[47] = system: UACC-257 melanoma
[48] = system: NCI-H460 lung

SMILES: CCN(CC)CCCC(C)Nc1cc(-c2ccc(C(F)(F)F)cc2)c(C#N)c2nc3ccccc3n12 (stereo unspecified)
- GI50 [1]: 2960 nM
- TGI [1]: 11100 nM
- GI50 [2]: 1580 nM
- TGI [2]: 3420 nM
- GI50 [3]: 325 nM
- TGI [3]: 1190 nM
- GI50 [4]: 1830 nM
- TGI [4]: 3540 nM
- GI50 [5]: 1410 nM
- TGI [5]: 2870 nM
- GI50 [6]: 3290 nM
- TGI [6]: 12600 nM
- GI50 [7]: 2290 nM
- TGI [7]: 5150 nM
- GI50 [8]: 1600 nM
- TGI [8]: 3160 nM
- GI50 [9]: 2200 nM
- TGI [9]: 7180 nM
- GI50 [10]: 1980 nM
- TGI [10]: 4440 nM
- GI50 [11]: 1470 nM
- TGI [11]: 2900 nM
- GI50 [12]: 1960 nM
- TGI [12]: 5220 nM
- GI50 [13]: 2160 nM
- TGI [13]: 5910 nM
- GI50 [14]: 2270 nM
- TGI [14]: 4150 nM
- GI50 [15]: 2290 nM
- TGI [15]: 5820 nM
- GI50 [16]: 2410 nM
- TGI [16]: 5510 nM
- GI50 [17]: 1670 nM
- TGI [17]: 3140 nM
- GI50 [18]: 3120 nM
- TGI [18]: 10100 nM
- GI50 [19]: 1840 nM
- TGI [19]: 3680 nM
- GI50 [20]: 1380 nM
- TGI [20]: 2870 nM
- GI50 [21]: 2040 nM
- TGI [21]: 4160 nM
- GI50 [22]: 3440 nM
- TGI [22]: 10900 nM
- GI50 [23]: 1660 nM
- TGI [23]: 3430 nM
- GI50 [24]: 2220 nM
- TGI [24]: 4750 nM
- GI50 [25]: 1920 nM
- TGI [25]: 3990 nM
- GI50 [26]: 687 nM
- TGI [26]: 2060 nM
- GI50 [27]: 846 nM
- TGI [27]: > 100000 nM
- GI50 [28]: 1810 nM
- TGI [28]: 3370 nM
- GI50 [29]: 1910 nM
- TGI [29]: 3670 nM
- GI50 [30]: 2100 nM
- TGI [30]: 4880 nM
- GI50 [31]: 2490 nM
- TGI [31]: 5290 nM
- GI50 [32]: 2060 nM
- TGI [32]: 4260 nM
- GI50 [33]: 1820 nM
- TGI [33]: 4860 nM
- GI50 [34]: 1720 nM
- TGI [34]: 3380 nM
- GI50 [35]: 2890 nM
- TGI [35]: 12500 nM
- GI50 [36]: 2380 nM
- TGI [36]: 5580 nM
- GI50 [37]: 3190 nM
- TGI [37]: 12100 nM
- GI50 [38]: 2230 nM
- TGI [38]: 5450 nM
- GI50 [39]: 1890 nM
- TGI [39]: 3570 nM
- GI50 [40]: 1880 nM
- TGI [40]: 4030 nM
- GI50 [41]: 2100 nM
- TGI [41]: 4980 nM
- GI50 [42]: 1400 nM
- TGI [42]: 2960 nM
- GI50 [43]: 1860 nM
- TGI [43]: 4220 nM
- GI50 [44]: 1510 nM
- TGI [44]: 2930 nM
- GI50 [45]: 3550 nM
- TGI [45]: 11400 nM
- GI50 [46]: 1900 nM
- TGI [46]: 4430 nM
- GI50 [47]: 2080 nM
- TGI [47]: 3750 nM
- GI50 [48]: 1820 nM
- TGI [48]: 3610 nM
